Where two headings read alike, the source gives them in different places. Values belong to the compound of their own block, whether it stands above or below them.
Tests used:
[1] = target: T1, HIV-1 reverse transcriptase (Human immunodeficiency virus type 1 group M subtype B, UniProt P04585); test: HIV-1 in vitro reverse transcriptase activity (fixed-time RNA dependent DNA polymerase assay); assay type: biochemical; conditions: residual RT activity, compound at 10 μM; RT activity without compound set at 100%
T1 construct: fixed-time assay for HIV-1 reverse transcriptase RNA dependent DNA polymerase activity; RT was purchased from Calbiochem; purchased Calbiochem CAL382129-500
Protocol: For the in vitro inhibition studies of the HIV-1 reverse transcriptase activity, stock solutions of the compounds of the present invention were prepared in dimethyl sulfoxide at a final concentration of 10 mM and kept at room temperature. Nevirapine was purchased from Boehringer Ingelheim. Efavirenz was received from the NIH AIDS Research and Reference Reagent Program.
In vitro inhibition studies used a fixed-time assay for HIV-1 reverse transcriptase RNA dependent DNA polymerase activity. RT was purchased from Calbiochem (ref CAL382129-500). One unit of RT corresponds to the amount of enzyme which incorporates one nanomole of [^3H]TTP in 10 minutes at 37° C.
Assays were performed in a final volume of 50 μl. […] Reaction mixtures were incubated at 37° C. for 10 min. The incorporation rate was determined by a standard trichloroacetic acid precipitation procedure (adapted from Current protocols in molecular biology. Eds Wiley, MGH Harvard medical school) and liquid scintillation counting using a Wallac scintillation counter.
The in vitro activity of the compounds, at a final concentration of 10 μM, on the reverse transcriptase (RT) activity of HIV-1 is derivable from the relative (%) reduction in RT activity. Hereby, the RT activity in the absence of any of the compounds is set at 100%.

[2] = tested on: HIV-1 with WT (wild type) RT in P4 cells; test: Anti-HIV assay on P4 cell line, WT RT; assay type: cell-based
Protocol: (§1) For the antiviral and the cytotoxicity assays, the drugs were diluted in complete DMEM medium. In these experiments, drugs were diluted in triplicate wells in a 96-well plate in six, 5 fold serial dilutions.
(§2) Two days later, co-cultivation with SupT1 cells (a human T-cell lymphoma cell line) was initiated to facilitate rapid production of progeny virions. Production of virus was measured by using the Innotest HIV Antigen mAb p24 kit (Innogenetics). At the peak of production cultures were harvested and filtered. The virus stocks were stored at −80° C. until used.
Anti-HIV activity and cytotoxicity of the compounds were tested on a P4 cell line. […] The P4 cells were cultured in complete DMEM medium supplemented with 10% fetal bovine serum (FBS), 0.5% of Penicillin/Streptomycin and G418 at 0.5 mg/ml. Exponentially growing cells were trypsinized, centrifuged and split twice weekly at 5.10^4 cells/ml.
The P4 cells are HIV-infectible Hela-CD4 cells that carry the bacterial lacZ gene under the control of the HIV-1 long terminal repeat (LTR). In this cell line, transcription of the LacZ gene is driven by the HIV-1 LTR. […] In other words, in this system, the expression level of the β-galactosidase gene is proportional to the viral replication.
(§3) Briefly, in the anti-HIV assay 100 Ål of P4 cells were plated in 96-well plate at a concentration of 0.4 10^5 cells/ml and incubated at 37° C., 5% CO2. After 48 h, the medium was removed and 100 Ål of the different drugs dilutions were added to the cells. Four hours after the addition of the drugs all cells were infected with equal amount of cell-free virus, corresponding to 100 ng of HIV p24 antigen. After 48 h of incubation at 37° C., 5% CO2, β-galactosidase activity was measured using chlorophenol red-β-D-galactopyranoside assays.
Each assay was performed a minimum of three times. The 50% effective concentration (Ec50) was calculated from each dose response curve using the CurveExpert 1.3 software.

P4 cells = test: Cytotoxicity (CC50), MTT assay on P4 cells; assay type: cell-based; conditions: 3 days
Protocol: as §1
(§4) The 50% cytotoxic concentration (CCso) was determined using a protocol adapted from Pauwels et al. (1988. J. Virol. Methods 20(4):309-21). Briefly, flat bottom 96-well plates were filled with 50 μl of complete medium containing 5.10^3 P4 cells. 2 hours later 50 μl of drug solution were added to the cells. Drugs (dissolved in DMEM, see above) were diluted in six, 5-fold serial dilutions from stock solutions in triplicate wells of a 96-well plate. Cells and compounds were incubated at 37° C. in growth medium for 3 days. Cell viability was determined by MTT assays using the Roche Cell Proliferation KIT. The absorbance (λ=570 nm) was measured on a Benchmark™ Microplate Reader (Biorad) and compared with 12 cell control replicates (no drug added). Each assay was performed at least three times for a total of at least nine replicate wells. This method detects both cytostatic and cytolytic effects of drugs.

[3] = Cytotoxicity (CC50), MTT assay on P4 cells; assay type: cell-based; conditions: human
Protocol: as §1, §4

[4] = tested on: HIV-1 mutant Cys188RT in P4 cells; test: Anti-HIV assay on P4 cells, Cys188RT mutant; assay type: cell-based
Excerpt: (§5) In order to introduce mutation(s) at the level of the pol gene coding for the RT in the pNL4-3 plasmid containing the complete viral genome (Adachi et al., 1986. J. Virol., Vol. 59 p 284-291) we used the “Quick change mutagenesis kit” (Stratagene). The following mutations were separately introduced in pNL4-3: L100I, K103N, V108I, Y181C, Y188C, and the double mutations K103N/V108I. These mutations were chosen because of the resistance that they confer to existing NNRTI. The production procedure of the mutant viral stocks is identical to the one described above.
Anti-HIV activity and cytotoxicity of the compounds were tested on a P4 cell line. The P4 cell line (Clavel & Charneau, 1994. J. Virol., Vol. 68 p 1179-1185) was provided by Dr. François Clavel (Unité de recherche antivirale de l'hôpital Xavier Bichat Paris: Inserm). The P4 cells were cultured in complete DMEM medium supplemented with 10% fetal bovine serum (FBS), 0.5% of Penicillin/Streptomycin and G418 at 0.5 mg/ml. Exponentially growing cells were trypsinized, centrifuged and split twice weekly at 5.10^4 cells/ml.
The P4 cells are HIV-infectible Hela-CD4 cells that carry the bacterial lacZ gene under the control of the HIV-1 long terminal repeat (LTR). In this cell line, transcription of the LacZ gene is driven by the HIV-1 LTR. As such, the cytoplasmic accumulation of β-galactosidase is strictly dependent on the presence of the HIV transactivator Tat produced during the intracellular viral replication (Clavel & Charneau, 1994. J. Virol., Vol. 68, p. 1179-1185). In other words, in this system, the expression level of the β-galactosidase gene is proportional to the viral replication.
as §3
The absorbance was measured on a Benchmark™ Microplate Reader (Biorad) (λ=570 nm) and compared with 12 cell control replicates (no virus or drug added) and 12 virus control wells (no drug added). Each assay was performed a minimum of three times. The 50% effective concentration (Ec50) was calculated from each dose response curve using the CurveExpert 1.3 software. As Nevirapine activity corresponds to its published values (10-100 nM), the data are consistent with other measures of viral replication.

[5] = tested on: HIV-1 with WT (wild type) RT in TZM-bl cells; test: Anti-HIV assay on TZM-bl cell line, WT RT; assay type: cell-based
Protocol: as §2, with “Wurzburg Jurkat T cells (subclone JR) were transfected with 10 μg of the circularly permuted infectious molecular clone HIVNL4-3 (Adachi et al., 1986. J. Virol, 59 (2), p 284-291). Two” for “Two”
(§6) Anti-HIV activity and cytotoxicity of the compounds were tested on the TZM-b1 cell line. The TZM-b1 cell line (Wei et al. 2002. Antimicrob. Agents Chemother. Vol. 46, p 1896-1905) was received from the NIH AIDS Research and Reference Reagent Program. These cells were cultured in complete DMEM medium supplemented with 10% fetal bovine serum (FBS), and 1% Penicillin/Streptomycin. Exponentially growing cells were trypsinized, centrifuged and split twice weekly at 5 10^4 cells/ml.
(§7) The anti-HIV assay with TZM-b1 cells is essentially the same as described above with P4 cells. The main difference between the two cell lines is that the TZM-b1 cells express at their surface both the CD4 and CCR5 proteins, acting as receptor and co-receptor for HIV entry, respectively (Wei et al. 2002. Antimicrob. Agents Chemother. Vol. 46, p 1896-1905). This feature makes the cells very sensitive to infection by the virus. The TMZ-b1 cells were infected with equal amount of cell-free virus, corresponding to 10 ng of HIV p24 antigen. This amount is ten times lower than the amount used to infect the P4 cells.

[6] = tested on: HIV-1 mutant Cys188RT in TZM-bl cells; test: Anti-HIV assay on TZM-bl cells, Cys188RT mutant; assay type: cell-based; conditions: TZM-bl, mutant Cys188RT; read-out: EC50 Cys188RT TZM-bl
Excerpt: as §5, §6, §7

[7] = tested on: HIV-1 mutant Cys181RT in TZM-bl cells; test: Anti-HIV assay on TZM-bl cells, Cys181RT mutant; assay type: cell-based; conditions: TZM-bl, mutant Cys181RT; read-out: EC50 Cys181RT TZM-bl
Excerpt: as §5, §6, §7

[8] = tested on: HIV-1 mutant Asn103/Ile108RT in TZM-bl cells; test: Anti-HIV assay on TZM-bl cells, Asn103/Ile108RT double mutant; assay type: cell-based; conditions: TZM-bl, double mutant Asn103/Ile108RT; read-out: EC50 Asn103/Ile108RT TZM-bl
Excerpt: as §5, §6, §7

[9] = P4 cell line, WT RT, read-out: EC50 WT
[10] = Table 8, effect of the R2 substituent, cell line not given, read-out: EC50 WT
[11] = Table 8, effect of the R2 substituent, cell line not given, read-out: EC50 Cys188RT
[12] = Human immunodeficiency virus 1, P4 cell line, WT RT, read-out: EC50 WT

SMILES: CCOC(=O)c1c(OC2CC(C)CC(C)C2)c(CC)c(C)[nH]c1=O (single isomer, unassigned) [Z37A]
Relative (%) RT activity in vitro (compound added at 10 μM) [1]: 7.6%
EC50 [2, 9]: 240 nM
CC50 (P4 cells): 63000 nM

SMILES: CCOC(=O)c1c(OC(=O)C=C(C)C)c(CC)c(C)[nH]c1=O [M18, ethyl 5-ethyl-6-methyl-4-[(3-methylbut-2-enoyl)oxy]-2-oxo-1,2-dihydropyridine-3-carboxylate]
Relative (%) RT activity in vitro (compound added at 10 μM) [1]: 70.8%
EC50 ([2]; Human immunodeficiency virus 1, read-out: EC50 WT): 5820 nM
SI (selectivity index = CC50/EC50) ([2]; P4 cell line, WT RT): >17
CC50 at 3 days [3]: > 100000 nM
melting point: 166 °C

SMILES: CCOC(=O)c1c(OC2CCCCC2Cl)c(CC)c(C)[nH]c1=O (centres unmarked) [Z12]
Relative (%) RT activity in vitro (compound added at 10 μM) [1]: 63.7%
EC50 [2, 9]: 3090 nM
CC50 (P4 cells): > 100000 nM

SMILES: CCOC(=O)c1c(OC2CCCCCC2)c(CC)c(C)[nH]c1=O [Z25]
Relative (%) RT activity in vitro (compound added at 10 μM) [1]: 34.6%
EC50 [2, 9]: 480 nM
EC50 [2, 10]: 480 nM
CC50 (P4 cells): 81000 nM
activity on Cys188 mutant strains compared with the cyclohexyl derivative [4]: more active on Cys188 mutant strains than the cyclohexyl derivative
EC50 [4, 11]: 3280 nM

SMILES: CCOC(=O)c1c(OC2CCCC(C)C2)c(CC)c(C)[nH]c1=O (centres unmarked) [Z30]
Relative (%) RT activity in vitro (compound added at 10 μM) [1]: 22.0%
EC50 [2, 9]: 520 nM
CC50 (P4 cells): > 100000 nM

SMILES: CCc1c(C)[nH]c(=O)c(CO)c1OC1CCCCCC1 [Z32, 4-(cycloheptyloxy)-3-(hydroxymethyl)-5-ethyl-6-methylpyridin-2(1H)-one]
Relative (%) RT activity in vitro (compound added at 10 μM) [1]: 44.0%
EC50 [2, 12]: 1160 nM
SI (selectivity index = CC50/EC50) ([2]; P4 cell line, WT RT): 47
CC50 at 3 days [3]: 55000 nM
melting point: 146 °C

SMILES: CCc1c(C)[nH]c(=O)c(COC(=O)CCl)c1OC1CCCCCC1 [Z33, [4-(cycloheptyloxy)-5-ethyl-6-methyl-2-oxo-1,2-dihydropyridin-3-yl]methyl chloroacetate]
Relative (%) RT activity in vitro (compound added at 10 μM) [1]: 42.0%
EC50 [2, 12]: 1030 nM
SI (selectivity index = CC50/EC50) ([2]; P4 cell line, WT RT): 52
CC50 at 3 days [3]: 54000 nM
melting point: 123 °C

SMILES: CCOC(=O)c1c(OC2CC(C)CC(C)C2)c(CC)c(C)[nH]c1=O (centres unmarked) [Z37, ethyl 4-[(3,5-dimethylcyclohexyl)oxy]-5-ethyl-6-methyl-pyridine-2(1H)-one-3-carboxylate]
Relative (%) RT activity in vitro (compound added at 10 μM) [1]: 8.3%
EC50 [2, 12]: 43 nM
SI (selectivity index = CC50/EC50) ([2]; P4 cell line, WT RT): 1349
CC50 at 3 days [3]: 58000 nM
activity on Cys188 mutant strains compared with the cyclohexyl derivative [4]: more active on Cys188 mutant strains than the cyclohexyl derivative
EC50 ([4]; Human immunodeficiency virus 1, read-out: EC50 Cys188RT): 6 nM
melting point: 108 °C

SMILES: CCc1c(C)[nH]c(=O)c(C(=O)OCCN(CC)CC)c1OC1CC(C)CC(C)C1 (centres unmarked) [Z53]
Relative (%) RT activity in vitro (compound added at 10 μM) [1]: 34.3%

SMILES: CCOC(=O)c1c(OC2CCCCCCC2)c(CC)c(C)[nH]c1=O [Z54]
Relative (%) RT activity in vitro (compound added at 10 μM) [1]: 24%
EC50 [2, 9]: 1350 nM
CC50 (P4 cells): 58000 nM

SMILES: CCOC(=O)c1c(OC2CCC(CC)CC2)c(CC)c(C)[nH]c1=O (centres unmarked) [Z55]
Relative (%) RT activity in vitro (compound added at 10 μM) [1]: 40.3%

SMILES: CCc1c(C)[nH]c(=O)c(N)c1OC1CC(C)CC(C)C1 (centres unmarked) [Z96inv]
Relative (%) RT activity in vitro (compound added at 10 μM) [1]: 25.4%

SMILES: CCc1c(C)[nH]c(=O)c(CC)c1OC1CC(C)CC(C)C1 (centres unmarked) [Z167]
EC50 [5]: < 1 nM
EC50 [6]: < 1 nM
EC50 [7]: 7 nM
EC50 [8]: 129 nM

EC50 [2, 10]: 1910 nM
SMILES: CCOC(=O)c1c(OC2CCCC2)c(CC)c(C)[nH]c1=O [reference compound]

SMILES: CCOC(=O)c1c(OC2CCCCC2)c(CC)c(C)[nH]c1=O [reference compound]
EC50 [2, 10]: 770 nM
EC50 [4, 11]: 6500 nM
